Results from PubChem BioAssay (NCI).
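Method: 48-hour compound exposure of cells in 96-well plates, five concentrations, linear interpolation of endpoints. TGI marks complete inhibition of growth.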

What was measured:
Experiment in all cases: NCI-60 cell line screen, 48 h
[1] = test system: OVCAR-8 ovarian
[2] = test system: SN12C renal
[3] = test system: OVCAR-3 ovarian
[4] = test system: SF-539 CNS
[5] = test system: IGROV1 ovarian
[6] = test system: SNB-75 CNS
[7] = test system: UACC-257 melanoma
[8] = test system: HCT-15 colon
[9] = test system: SNB-19 CNS
[10] = test system: M14 melanoma
[11] = test system: OVCAR-4 ovarian
[12] = test system: K-562 leukemia
[13] = test system: HT29 colon
[14] = test system: SR leukemia
[15] = test system: CAKI-1 renal
[16] = test system: UACC-62 melanoma
[17] = test system: XF 498 CNS
[18] = test system: MDA-MB-435
[19] = test system: MDA-MB-231 breast
[20] = test system: T-47D breast

Row | Compound | TGI [1] [µM] | TGI [2] [µM] | TGI [3] [µM] | TGI [4] [µM] | TGI [5] [µM] | TGI [6] [µM] | TGI [7] [µM] | TGI [8] [µM] | TGI [9] [µM] | TGI [10] [µM] | TGI [11] [µM] | TGI [12] [µM] | TGI [13] [µM] | TGI [14] [µM] | TGI [15] [µM] | TGI [16] [µM] | TGI [17] [µM] | TGI [18] [µM] | TGI [19] [µM] | TGI [20] [µM]
1 | CN(C(=O)C12C3C4C1C1C2C3C41I)C(C)(C)C (configuration not stated) | > 100 | > 100 | > 100 | > 100 | > 100 | > 100 | > 100 | > 100 | > 100 | > 100 | > 100 | > 100 | > 100 | > 31.6 | > 100 | > 100 | > 100 | – | – | –
2 | CCCCCCn1c(SCC)c2ccccc2c1-c1nc(F)nc(F)n1 | > 100 | > 100 | > 100 | > 100 | > 100 | > 100 | > 100 | > 100 | > 100 | > 100 | > 100 | > 100 | > 100 | > 100 | > 100 | – | > 100 | – | – | –
3 | COc1ccc(OC)c2sc(N3C(=O)/C(=C/Cc4ccco4)N=C3c3ccccc3)nc12 | > 100 | 80 | > 100 | > 100 | > 100 | 57.8 | > 100 | > 100 | > 100 | > 100 | > 100 | > 100 | > 100 | 43.9 | > 100 | 51.1 | – | 60.8 | > 100 | 79.8
4 | Cc1c2cnccc2c(C)c2c1[nH]c1ccc(O)cc12 | 3.41 | 7.35 | 3.91 | 2.41 | > 10 | 8.09 | > 10 | > 10 | > 10 | > 10 | 8 | > 10 | > 10 | 2.88 | > 10 | > 10 | – | 8.73 | 4.13 | > 10
5 | CC(=O)/C(=C\c1ccco1)C(=O)Nc1ccccc1 | > 100 | > 100 | > 100 | > 100 | > 100 | – | > 100 | > 100 | > 100 | > 100 | > 100 | > 100 | > 100 | > 100 | > 100 | > 100 | > 100 | – | – | –
6 | NC(=O)C(Nc1c(Cl)cccc1Cl)c1cc2cc(Br)ccc2nc1Cl (configuration not stated) | > 100 | > 100 | > 100 | > 100 | > 100 | > 100 | > 100 | > 100 | > 100 | > 100 | > 100 | > 100 | > 100 | 56.5 | > 100 | > 100 | – | 49.9 | > 100 | > 100
7 | COc1cc(NC(C)=O)c2[nH]c3c(C)cc(NC(C)=O)c(C)c3c2c1 | > 100 | > 100 | > 100 | > 100 | > 100 | > 100 | – | > 100 | > 100 | > 100 | > 100 | > 100 | > 100 | – | > 100 | – | > 100 | – | – | –
8 | O=C(O)C1CC2C3CCC2C1C3=O (configuration not stated) | > 100 | > 100 | > 100 | > 100 | > 100 | > 100 | > 100 | > 100 | > 100 | > 100 | > 100 | > 100 | > 100 | > 100 | > 100 | > 100 | – | > 100 | > 100 | > 100
9 | O=P(O)(OCC(O)O)OCC(O)O | > 100 | – | > 100 | > 100 | > 100 | > 100 | > 100 | – | > 100 | – | – | > 100 | > 100 | – | – | – | > 100 | – | – | –
10 | NC(=O)c1cc2ccccc2oc1=Nc1ccccc1 | > 100 | > 100 | > 100 | > 100 | > 100 | > 100 | > 100 | > 100 | > 100 | > 100 | > 100 | > 100 | > 100 | > 100 | > 100 | > 100 | – | > 100 | > 100 | > 100
11 | COc1ccc(Br)c2c1CC(C(=O)O)CC2 (configuration not stated) | > 100 | > 100 | > 100 | > 100 | > 100 | > 100 | > 100 | > 100 | > 100 | > 100 | > 100 | > 100 | > 100 | > 100 | > 100 | > 100 | > 100 | > 100 | > 100 | > 100
12 | Oc1ccccc1/C=N/Nc1nnc2c3ccccc3c3ccccc3c2n1 | > 100 | > 100 | 44.2 | > 100 | > 100 | 84.4 | 64.7 | > 100 | > 100 | > 100 | > 100 | > 100 | > 100 | > 100 | > 100 | > 100 | – | > 100 | > 100 | > 100
13 | COc1cc(/C=C\c2ccccn2)cc(OC)c1OC | > 100 | > 100 | > 100 | > 100 | > 100 | > 100 | > 100 | > 100 | > 100 | > 100 | > 100 | > 100 | > 100 | – | > 100 | > 100 | > 100 | – | – | –
14 | CC1(C)C(=O)N(O)C(C)(C)N1O | > 10 | > 10 | > 10 | > 10 | > 10 | > 10 | > 10 | > 10 | > 10 | > 10 | > 10 | > 10 | > 10 | > 10 | > 10 | > 10 | – | > 10 | > 10 | > 10
